Source: PMC8282704 (Clinical cancer research : an official journal of the …, 2021)

Legend:
[1] = system: hormone receptor-positive metastatic breast cancer; settings: cited from earlier work
[2] = system: PIK3CA/AKT1/PTEN-altered metastatic TNBC; settings: cited from earlier work
[3] = Plasma pharmacokinetics, phase I, cycle 1; type: in vivo, human; settings: 13 patients, with nab-paclitaxel
[4] = system: patients with HER2-negative metastatic breast cancer; assay: Treatment-related adverse events; type: in vivo, human; settings: 11/43; N=1 at 250mg, N=10 at 350mg
[5] = system: PI3Kα isoform (both wild-type and mutated p110α); settings: cited from earlier work
[6] = system: patients with HER2-negative metastatic breast cancer; type: in vivo
[7] = system: other class I isoforms β, δ, and γ; settings: cited from earlier work

NC1(C(=O)N[C@@H](CCO)c2ccc(Cl)cc2)CCN(c2ncnc3[nH]ccc23)CC1 [capivasertib]
PFS with addition to fulvestrant [1]: improvement in PFS

CC(C)NC[C@@H](C(=O)N1CCN(c2ncnc3c2[C@H](C)C[C@H]3O)CC1)c1ccc(Cl)cc1 [ipatasertib]
PFS with addition to first-line paclitaxel [2]: failed to show improvement in PFS

Cc1nc(NC(=O)N2CCC[C@H]2C(N)=O)sc1-c1ccnc(C(C)(C)C(F)(F)F)c1 [alpelisib]
Tmax, Cmax, and AUC (0–8 hrs) of alpelisib [3]: consistent with previous published reports | Alpelisib dose reduction required, patients [4]: 26% | inhibition of PI3Kα isoform [5]: selectively inhibits PI3Kα isoform | MTD of alpelisib ([6]; in combination with nab-paclitaxel 100mg/m^2 D1,8,15): not reached | RP2D of alpelisib ([6]; orally daily, in combination with nab-paclitaxel 100mg/m^2 D1,8,15 every 28 days): 350 mg | activity against the other class I isoforms β, δ, and γ [7]: significantly less active
